We go through 11 molecules from the RepoRT retention time repository (doi:10.1016/j.foodchem.2021.129757).

The nature of one series: RP, Waters ACQUITY UPLC BEH Shield RP18, 100 × 2.1 mm, 1.7 µm, 30 °C, 0.6 mL/min, estimated dead time 0.37 min; A: water + 0.1% formic acid, pH 3; B: acetonitrile + 0.1% formic acid, pH 3; gradient (min/%B) 0/0 2/0 7/10 22/95 22.1/0 26/0. The following applies: stereoisomer not certain.
Turning to `O=C(C=Cc1ccc(O)c(O)c1)OC1CC(O)(C(=O)O)CC(O)C1O` (stereo unspecified) [Chlorogenic acid], the LC retention time is 11 min.

The nature of a further series: RP, Waters ACQUITY UPLC BEH Shield RP18, 150 × 2.1 mm, 1.7 µm, 40 °C, 0.4 mL/min, estimated dead time 0.83 min; A: water + 0.1% formic acid, pH 3; B: acetonitrile + 0.1% formic acid, pH 3; gradient (min/%B) 0/0 30/50 31/100 37/100 37.1/0. The following applies: stereoisomer not certain.
Consider `COc1ccc(C2CC(=O)c3c(O)cc(OC4OC(COC5OC(C)C(O)C(O)C5O)C(O)C(O)C4O)cc3O2)cc1O` (stereo unspecified) [Hesperidin], for which the LC retention time was 13 min.
On the same count and under the same terms, for `O=c1c(O)c(-c2ccc(O)c(O)c2)oc2cc(O)cc(O)c12` [Quercetin] the value was 20.4 min.
For the molecule `O=C1c2c(O)cc(O)cc2OC(c2ccc(O)c(O)c2)C1O` (stereo unspecified) [Taxifolin], the LC retention time was 12.4 min.
The same measure, in the same setting: for `CC1OC(OCC2OC(Oc3c(-c4ccc(O)c(O)c4)oc4cc(O)cc(O)c4c3=O)C(O)C(O)C2O)C(O)C(O)C1O` (stereo unspecified) [Rutin] the value was 12.6 min.
Same read-out and setting: for `O=C(C=Cc1ccc(O)c(O)c1)OC1CC(O)(C(=O)O)CC(O)C1O` (stereo unspecified) [Chlorogenic acid] the value was 7.05 min.

A short description of a further series: RP, Agilent ZORBAX RRHD Eclipse Plus C18, 50 × 2.1 mm, 1.8 µm, 30 °C, 0.4 mL/min, estimated dead time 0.28 min; A: water + 0.1% formic acid, pH 3; B: acetonitrile + 0.1% formic acid, pH 3; gradient (min/%B) 0/1 5/10 8/25 9.1/99 10/99 12/1. Conditions: stereoisomer not certain.
In the case of `O=C(O)c1ccc(O)cc1` [4-Hydroxybenzoic acid], the LC retention time was 3.9 min.
Still for that read-out and setting: for `O=c1c(O)c(-c2ccc(O)c(O)c2)oc2cc(O)cc(O)c12` [Quercetin] the value was 9.04 min; for `O=C1c2c(O)cc(O)cc2OC(c2ccc(O)c(O)c2)C1O` (stereo unspecified) [Taxifolin], 7.85 min; for `O=C(C=Cc1ccc(O)c(O)c1)OC1CC(O)(C(=O)O)CC(O)C1O` (stereo unspecified) [Chlorogenic acid], 5.31 min.

A short description of another series: RP, Agilent ZORBAX RRHD Eclipse Plus C18, 50 × 2.1 mm, 1.8 µm, 30 °C, 0.4 mL/min, estimated dead time 0.28 min; A: water + 0.1% formic acid, pH 3; B: acetonitrile + 0.1% formic acid, pH 3; gradient (min/%B) 0/1 5/10 8/25 9.1/99 10/99 12/99. Conditions: stereoisomer not certain.
For the molecule `O=C(O)c1ccc(O)cc1` [4-Hydroxybenzoic acid], the LC retention time is 2.55 min.
Same read-out and setting: for `O=c1c(O)c(-c2ccc(O)c(O)c2)oc2cc(O)cc(O)c12` [Quercetin] the value was 9.19 min; for `O=C1c2c(O)cc(O)cc2OC(c2ccc(O)c(O)c2)C1O` (stereo unspecified) [Taxifolin], 8.66 min; for `O=C(C=Cc1ccc(O)c(O)c1)OC1CC(O)(C(=O)O)CC(O)C1O` (stereo unspecified) [Chlorogenic acid], 4.49 min.

The nature of a further series: RP, Merck Supelco SUPELCOSIL LC-C18, 250 × 4.6 mm, 5 µm, 40 °C, 1 mL/min, estimated dead time 2.6 min; A: water + 0.1% trifluoroacetic acid, pH 2; B: acetonitrile + 0.1% trifluoroacetic acid, pH 2; gradient (min/%B) 0/5 45/35 47/75 49/35 50/5. The following applies: stereoisomer not certain.
With `O=C(O)c1ccc(O)c(O)c1O` [2,3,4-Trihydroxybenzoic acid], the LC retention time was 8.9 min.
Same read-out and setting: for `O=c1cc2oc(-c3cc(O)c(O)c(O)c3)c(O)cc-2c(O)c1` [Delphinidin] the value was 25.1 min; for `O=C(O)c1ccc(O)cc1` [4-Hydroxybenzoic acid], 11.3 min.
Same read-out and setting: for `COc1ccc(C2CC(=O)c3c(O)cc(OC4OC(COC5OC(C)C(O)C(O)C5O)C(O)C(O)C4O)cc3O2)cc1O` (stereo unspecified) [Hesperidin] the value was 30.1 min; for `O=c1c(O)c(-c2ccc(O)c(O)c2)oc2cc(O)cc(O)c12` [Quercetin], 37.2 min.
Still for that read-out and setting: for `O=C1c2c(O)cc(O)cc2OC(c2ccc(O)c(O)c2)C1O` (stereo unspecified) [Taxifolin] the value was 23 min; for `O=c1oc2c(O)c(O)cc3c(=O)oc4c(O)c(O)cc1c4c23` [Ellagic acid], 24.8 min; for `Oc1ccc(-c2[o+]c3cc(O)cc(O)c3cc2O)cc1` [Pelargonidin], 33.5 min.
Turning to `CC1OC(OCC2OC(Oc3c(-c4ccc(O)c(O)c4)oc4cc(O)cc(O)c4c3=O)C(O)C(O)C2O)C(O)C(O)C1O` (stereo unspecified) [Rutin], the LC retention time is 25.2 min.
Still for that read-out and setting: for `COc1cc(-c2[o+]c3cc(O)cc(O)c3cc2O)cc(OC)c1O` [Malvidin] the value was 35.9 min; for `O=C(C=Cc1ccc(O)c(O)c1)OC1CC(O)(C(=O)O)CC(O)C1O` (stereo unspecified) [Chlorogenic acid], 13.8 min.

A further series in a line: RP, Agilent InfinityLab Poroshell 120 EC-C18, 100 × 3 mm, 2.7 µm, 25 °C, 0.4 mL/min, estimated dead time 1.1 min; A: water + 0.1% formic acid, pH 3; B: acetonitrile + 0.1% formic acid, pH 3; gradient (min/%B) 0/5 10/25 20/40 24/90 25/90 26/5 30/5. Conditions: stereoisomer not certain.
`COc1ccc(C2CC(=O)c3c(O)cc(OC4OC(COC5OC(C)C(O)C(O)C5O)C(O)C(O)C4O)cc3O2)cc1O` (stereo unspecified) [Hesperidin]: the LC retention time was 10.8 min.
On the same count and under the same terms, for `O=c1c(O)c(-c2ccc(O)c(O)c2)oc2cc(O)cc(O)c12` [Quercetin] the value was 14.1 min; for `O=c1oc2c(O)c(O)cc3c(=O)oc4c(O)c(O)cc1c4c23` [Ellagic acid], 8.97 min.
Still for that read-out and setting: for `CC1OC(OCC2OC(Oc3c(-c4ccc(O)c(O)c4)oc4cc(O)cc(O)c4c3=O)C(O)C(O)C2O)C(O)C(O)C1O` (stereo unspecified) [Rutin] the value was 8.79 min; for `O=C(C=Cc1ccc(O)c(O)c1)OC1CC(O)(C(=O)O)CC(O)C1O` (stereo unspecified) [Chlorogenic acid], 5.48 min.

A short description of a further series: RP, Phenomenex Synergi Hydro-RP, 250 × 2 mm, 4 µm, 25 °C, 0.2 mL/min, estimated dead time 2.5 min; A: water + 0.1% formic acid, pH 3; B: acetonitrile + 0.1% formic acid, pH 3; gradient (min/%B) 0/0.5 7/0.5 12/12.5 25/16.3 47/35 48/65 50/65 50.1/0.5. The following applies: stereoisomer not certain.
Consider `O=C(O)c1ccc(O)cc1` [4-Hydroxybenzoic acid], for which the LC retention time was 19.9 min.
Still for that read-out and setting: for `O=c1c(O)c(-c2ccc(O)c(O)c2)oc2cc(O)cc(O)c12` [Quercetin] the value was 46.8 min.
The same measure, in the same setting: for `O=C1c2c(O)cc(O)cc2OC(c2ccc(O)c(O)c2)C1O` (stereo unspecified) [Taxifolin] the value was 33.9 min; for `CC1OC(OCC2OC(Oc3c(-c4ccc(O)c(O)c4)oc4cc(O)cc(O)c4c3=O)C(O)C(O)C2O)C(O)C(O)C1O` (stereo unspecified) [Rutin], 34.1 min; for `O=C(C=Cc1ccc(O)c(O)c1)OC1CC(O)(C(=O)O)CC(O)C1O` (stereo unspecified) [Chlorogenic acid], 20 min.

A further series in a line: RP, Waters Atlantis T3, 100 × 2.1 mm, 3 µm, 40 °C, 0.3 mL/min, estimated dead time 0.73 min; A: water + 0.1% trifluoroacetic acid, pH 2; B: acetonitrile + 0.1% trifluoroacetic acid, pH 2; gradient (min/%B) 0/10 1/10 6/40 7/50 8/50 14/70 16/80 20/10 25/10. Conditions: stereoisomer not certain.
Turning to `O=C(O)c1ccc(O)cc1` [4-Hydroxybenzoic acid], the LC retention time is 3.58 min.
With `COc1ccc(C2CC(=O)c3c(O)cc(OC4OC(COC5OC(C)C(O)C(O)C5O)C(O)C(O)C4O)cc3O2)cc1O` (stereo unspecified) [Hesperidin], the LC retention time is 10 min.
Still for that read-out and setting: for `O=c1c(O)c(-c2ccc(O)c(O)c2)oc2cc(O)cc(O)c12` [Quercetin] the value was 9.34 min.
The same measure, in the same setting: for `O=c1oc2c(O)c(O)cc3c(=O)oc4c(O)c(O)cc1c4c23` [Ellagic acid] the value was 7.94 min.
On to `CC1OC(OCC2OC(Oc3c(-c4ccc(O)c(O)c4)oc4cc(O)cc(O)c4c3=O)C(O)C(O)C2O)C(O)C(O)C1O` (stereo unspecified) [Rutin], for which the LC retention time is 7.12 min.
Same read-out and setting: for `O=C(C=Cc1ccc(O)c(O)c1)OC1CC(O)(C(=O)O)CC(O)C1O` (stereo unspecified) [Chlorogenic acid] the value was 3.17 min.
